Key:
[1] = Inhibition of KB cell growth was determined.; format: functional, cell-based; details: Homo sapiens
HFF [2] = assay: Antiviral activity against HCMV was determined by plaque reduction assay using HFF cells; format: functional, cell-based; details: Homo sapiens
HFF [3] = assay: Visual cytotoxicity was scored on HFF cells at time of HCMV plaque enumeration; format: functional, cell-based; details: Homo sapiens
[4] = ELISA assay was performed using BSC-1 cells to determine activity against HSV-1; format: functional, cell-based, Cercopithecidae
HFF [5] = assay: Antiviral activity against HCMV was determined by yield reduction assay using HFF cells; format: functional; details: Homo sapiens

Structure (SMILES)	IC50 [1] [µM]	IC50 (HFF [2]) [µM]	IC50 (HFF [3]) [µM]	IC50 [4] [µM]	IC90 (HFF [5]) [µM]
Clc1cc2cc(Br)[nH]c2cc1Cl	70	14	32	70	
OC[C@H]1O[C@@H](n2c(Cl)nc3cc(Cl)c(Cl)cc32)[C@H](O)[C@@H]1O	210			102	1.4
OC[C@H]1OC(n2c(Cl)cc3cc(Cl)c(Cl)cc32)[C@H](O)[C@@H]1O (some centres not stated)	> 100	42	> 100	> 100	50
OC[C@H]1OC(n2c(Br)cc3cc(Cl)c(Cl)cc32)[C@H](O)[C@@H]1O (some centres not stated)	> 100	18	100	> 100	42
OC[C@H]1O[C@@H](n2c(SCc3ccccc3)cc3cc(Cl)c(Cl)cc32)CC1O (some centres not stated)	60	32	32	40	
O=C(O)P(=O)(O)O [FOSCARNET]		39	> 100		
Nc1nc2c(ncn2COC(CO)CO)c(=O)[nH]1 [GANCICLOVIR]	> 100		> 100	3.5	1.6

From ChEMBL document CHEMBL1133752, “Synthesis and antiviral evaluation of trisubstituted indole N-nucleosides as analogues of 2,5,6-trichloro-1-(beta-D-ribofuranosyl)benzimidazole (TCRB)” (J Med Chem, 2000)
